# Experimental data as given in ChEMBL document CHEMBL1764989, “Local structural changes, global data views: graphical substructure-activity relationship trailing” (J Med Chem, 2011).
# pKi: −log10 of the molar value.
# Target: Coagulation factor X (Homo sapiens, UniProt P00742)
# Assay: Inhibition of human factor 10a
# Sequence of Coagulation factor X (P00742 41-179 limits assumed): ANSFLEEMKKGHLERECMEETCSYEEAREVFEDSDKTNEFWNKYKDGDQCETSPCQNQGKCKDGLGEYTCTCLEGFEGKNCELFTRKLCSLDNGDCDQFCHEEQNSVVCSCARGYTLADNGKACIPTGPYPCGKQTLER
# Sequence of Coagulation factor X (P00742 235-488 limits assumed): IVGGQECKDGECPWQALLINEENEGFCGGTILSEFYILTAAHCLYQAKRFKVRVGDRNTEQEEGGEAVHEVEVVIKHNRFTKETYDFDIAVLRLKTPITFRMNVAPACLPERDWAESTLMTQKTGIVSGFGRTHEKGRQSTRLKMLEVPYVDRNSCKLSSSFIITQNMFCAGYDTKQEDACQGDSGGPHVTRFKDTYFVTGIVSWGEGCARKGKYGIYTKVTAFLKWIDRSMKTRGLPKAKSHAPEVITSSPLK
row,pKi,SMILES
1,9.30,COc1ccc(-n2nc(C(F)(F)F)c3c2C(=O)N(c2ccc(-c4ccccc4CN4CCC(O)C4)cc2)CC3)cc1 (stereo not given)
2,8.20,COc1ccc2ccc(S(=O)(=O)NC3CCN(Cc4cc(C(=N)N)ccc4N)C3=O)cc2c1 (stereo not given)
3,8.20,COc1ccc(-n2nc(C(F)(F)F)c3c2C(=O)N(c2ccc(N(C)C)cc2)CC3)cc1
4,6.70,COc1ccc(-n2nc(C(F)(F)F)c3c2C(=O)N(c2ccc(NC(C)=O)cc2)CC3)cc1
5,5.90,COc1ccc2ccc(S(=O)(=O)NC3CCN(Cc4cc(C(=N)N)ccc4OCC(=O)O)C3=O)cc2c1 (stereo not given)
6,9.70,COc1ccc(-n2nc(C(F)(F)F)c3c2C(=O)N(c2ccc(-c4ccccc4S(C)(=O)=O)cc2)CC3)cc1
7,5.90,COc1ccc2ccc(S(=O)(=O)NC3CCN(Cc4cc(N)cc(C(=N)N)c4)C3=O)cc2c1 (stereo not given)
8,6.00,COc1ccc2ccc(S(=O)(=O)NC3CCN(Cc4ccc(O)c(C(=N)N)c4)C3=O)cc2c1 (stereo not given)
9,8.10,COC(=O)COc1ccc(C(=N)N)cc1CN1CCC(NS(=O)(=O)c2ccc3ccc(OC)cc3c2)C1=O (stereo not given)
10,8.50,COc1ccc2ccc(S(=O)(=O)NC3CCN(Cc4cc(C(=N)N)ccc4O)C3=O)cc2c1 (stereo not given)
